Values after ≈ are worked out from the molar mass of the structure shown.
Key:
[1] = tested on: mouse leukemia L-1210 cells; assay: growth inhibitory activity to cancer cells in vitro (L-1210, 48 hours); assay type: cell-based; conditions: for inhibition at 1.25 µg/mL: L1210, 1.25 mcg/ml; for inhibition at 2.5 µg/mL: L1210, 2.5 mcg/ml; for inhibition at 5 µg/mL: L1210, 5 mcg/ml; for inhibition at 10 µg/mL: L1210, 10 mcg/ml; for inhibition at 20 µg/mL: L1210, 20 mcg/ml; for inhibition at 40 µg/mL: L1210, 40 mcg/ml; for inhibition at 80 µg/mL: L1210, 80 mcg/ml; for IC50: L1210, L-1210 cells, read-out: 50% inhibitory concentration
Method: DBA/2 mice were implanted with 10^5 mouse leukemia L-1210 cells. The ascites collected asceptically from the mice after 4 days of feeding was washed three times with physiological saline to obtain L-1210 cells, which was then suspended in RPMI 1640 culture medium [G. E. Moore, Journal of the American Medical Association, Vol. 199, 519 (1967); H. J. Morton, In Vitro, Vol. 6, 89 (1970)] to which 10% fetal calf serum and 5 μM 2-mercaptoethanol had been added, and the resulting suspension was diluted to 5×10^4 L-1210 cells per 0.9 ml. A microplate carrying 0.9 ml of the cell suspension and 0.1 ml of the culture medium containing the sample being tested was kept in a carbon dioxide incubator at 37° C. After 48 hours of cultivation, the number of cells was measured by means of a Coulter Counter (Coulter Electronics, Inc., U.S.A.) to obtain the growth inhibition (%)=(1--T/C )×100=[1-(number of grown cells in medium containing sample/(number of grown cells in control medium)]×100. The 50% growth inhibitory concentration was calculated from the values of growth inhibition at varied sample concentrations. The results of tests on typical compounds of this invention for the growth inhibition of L-1210 cells were as shown in Table 6.

[2] = tested on: mouse leukemia L-1210; assay: therapeutic effect on implanted cancer in mice (L-1210, survival over 30 days); assay type: in vivo, mouse (BDF1); conditions: L1210, ip, 720 h, 6 days; for responders at 0.2 mg/kg / response vs control in vivo at 0.2 mg/kg: 0.20 mg/kg/day i.p.; for responders at 0.2 mg/kg / responders at 0.39 mg/kg / responders at 0.78 mg/kg / responders at 1.56 mg/kg / responders at 3.13 mg/kg / responders at 6.25 mg/kg / responders at 12.5 mg/kg / responders at 25 mg/kg / responders at 50 mg/kg: read-out: Number of mice survived for 30 days (converted); for response vs control in vivo at 0.2 mg/kg / response vs control in vivo at 0.39 mg/kg / response vs control in vivo at 0.78 mg/kg / response vs control in vivo at 1.56 mg/kg / response vs control in vivo at 3.13 mg/kg / response vs control in vivo at 6.25 mg/kg / response vs control in vivo at 12.5 mg/kg / response vs control in vivo at 25 mg/kg / response vs control in vivo at 50 mg/kg: read-out: Prolongation of survival period (%), T/C × 100; for responders at 0.39 mg/kg / response vs control in vivo at 0.39 mg/kg: 0.39 mg/kg/day i.p.; for responders at 0.78 mg/kg / response vs control in vivo at 0.78 mg/kg: 0.78 mg/kg/day i.p.; for responders at 1.56 mg/kg / response vs control in vivo at 1.56 mg/kg: 1.56 mg/kg/day i.p.; for responders at 3.13 mg/kg / response vs control in vivo at 3.13 mg/kg: 3.13 mg/kg/day i.p.; for responders at 6.25 mg/kg / response vs control in vivo at 6.25 mg/kg: 6.25 mg/kg/day i.p.; for responders at 12.5 mg/kg / response vs control in vivo at 12.5 mg/kg: 12.5 mg/kg/day i.p.; for responders at 25 mg/kg / response vs control in vivo at 25 mg/kg: 25 mg/kg/day i.p.; for responders at 50 mg/kg / response vs control in vivo at 50 mg/kg: 50 mg/kg/day i.p.
From the text: BDF1 strain male mice (5 weeks old) were each inoculated intraperitoneally with 10^5 mouse leukemia L-1210 cells and treated once a day by intraperitoneal injection with a test compound dissolved in physiological saline for 6 consecutive days beginning from the day of inoculation. The mice were then observed for 30 days to determine the rate of prolongation of survival period=100×T/C=100×(average survival days of treated group)/(average survival days of control group).

[3] = acute toxicity in mice (single intraperitoneal administration); conditions: mouse, in vivo, ip; mice, single i.p.; read-out: LD50 (median lethal dose on single administration)
Method: (§1) In Table 8 median lethal doses (LD50) of typical compounds of this invention are shown, measured in mice upon single intraperitoneal administration, as well as maximum tolerated doses in terms of total dose when a fixed amount per unit body weight was administered intraperitoneally to mice once a day for 6 consecutive days.
*Median lethal dose on single administration.

[4] = cumulative toxicity in mice (maximum tolerated dose, once a day for 6 consecutive days); conditions: mouse, in vivo, ip, i.p. once a day for 6 consecutive days, total dose, read-out: Maximum Tolerated Dose (total dose not causing death)
Method: as §1
**Maximum value of the total dose not causing death when a fixed amount
per unit body weight is administered to mice once a day for 6 consecutive

[5] = read-out: Growth inhibition (%), (1-T/C) × 100

`N=C(N)NCCCCCCC(O)CC(=O)NC(O)C(=O)NCCCCNCCCN` (stereo not drawn) [Compound 21, N-[4-(3-aminopropyl)aminobutyl]-2-(9-guanidino-3-hydroxynonanamido)-2-hydroxyethanamide] showed an inhibition at 1.25 µg/mL [1, 5] of 14.6%, an inhibition at 2.5 µg/mL [1, 5] of 21.5% and an inhibition at 5 µg/mL [1, 5] of 29.7%. The inhibition at 10 µg/mL [1, 5] was 37.5%, the inhibition at 20 µg/mL [1, 5] was 51.6% and the inhibition at 40 µg/mL [1, 5] was 84%. For the same compound, the inhibition at 80 µg/mL [1, 5] was 94.5%, the IC50 [1] was 18 µg/mL (≈ 41.7 µM) and the responders at 0.2 mg/kg [2] was 0%. The response vs control in vivo at 0.2 mg/kg [2] was 100%, the responders at 0.39 mg/kg [2] was 0% and the response vs control in vivo at 0.39 mg/kg [2] was 100%. For the same compound, the responders at 0.78 mg/kg [2] was 0%, the response vs control in vivo at 0.78 mg/kg [2] was 100% and the responders at 1.56 mg/kg [2] was 0%. The response vs control in vivo at 1.56 mg/kg [2] was 114%, the responders at 3.13 mg/kg [2] was 0% and the response vs control in vivo at 3.13 mg/kg [2] was 129%. It also gave a responders at 6.25 mg/kg [2] of 0%, a response vs control in vivo at 6.25 mg/kg [2] of 164% and a responders at 12.5 mg/kg [2] of 0%. The response vs control in vivo at 12.5 mg/kg [2] was 200%, the responders at 25 mg/kg [2] was 0% and the response vs control in vivo at 25 mg/kg [2] was 229%. For the same compound, the responders at 50 mg/kg [2] was 0%, the response vs control in vivo at 50 mg/kg [2] was 0% and the LD50 [3] was 25 to 50 mg/kg. The MTD [4] was > 150 mg/kg.

Work on `COC(NC(=O)C=CCCCCNC(=N)N)C(=O)NCCCCNCCCN` (stereo not drawn) [Compound 19, N-[4-(3-aminopropyl)aminobutyl]-2-(7-guanidino-2-heptenamido)-2-methoxyethanamide] yielded an inhibition at 1.25 µg/mL [1, 5] of 29.9%, an inhibition at 2.5 µg/mL [1, 5] of 32.2% and an inhibition at 5 µg/mL [1, 5] of 46.4%. The inhibition at 10 µg/mL [1, 5] was 56.4%, the inhibition at 20 µg/mL [1, 5] was 75.6% and the inhibition at 40 µg/mL [1, 5] was 85.4%. The inhibition at 80 µg/mL [1, 5] was 93.1%, the IC50 [1] was 6.3 µg/mL (≈ 15.8 µM) and the responders at 0.2 mg/kg [2] was 0%. For the same compound, the response vs control in vivo at 0.2 mg/kg [2] was 100%, the responders at 0.39 mg/kg [2] was 0% and the response vs control in vivo at 0.39 mg/kg [2] was 107%. The responders at 0.78 mg/kg [2] was 0%, the response vs control in vivo at 0.78 mg/kg [2] was 164% and the responders at 1.56 mg/kg [2] was 50%. For the same compound, the response vs control in vivo at 1.56 mg/kg [2] was > 350%, the responders at 3.13 mg/kg [2] was 50% and the response vs control in vivo at 3.13 mg/kg [2] was > 321%. The responders at 6.25 mg/kg [2] was 75%, the response vs control in vivo at 6.25 mg/kg [2] was > 429% and the responders at 12.5 mg/kg [2] was 50%. For the same compound, the response vs control in vivo at 12.5 mg/kg [2] was > 364%, the responders at 25 mg/kg [2] was 0% and the response vs control in vivo at 25 mg/kg [2] was 0%. The LD50 [3] was 12.5 to 25 mg/kg and the MTD [4] was > 75 mg/kg.

Work on `N=C(N)NCCCCCCC(=O)NC(O)C(=O)NCCCCNCCCN` (stereo not drawn) [Compound 4, N-[4-(3-aminopropyl)aminobutyl]-2-(7-guanidinoheptanamido)-2-hydroxyethanamide] yielded an inhibition at 1.25 µg/mL [1, 5] of 20%, an inhibition at 2.5 µg/mL [1, 5] of 27.5% and an inhibition at 5 µg/mL [1, 5] of 29.9%. The inhibition at 10 µg/mL [1, 5] was 58.4%, the inhibition at 20 µg/mL [1, 5] was 75.5% and the inhibition at 40 µg/mL [1, 5] was 78.7%. For the same compound, the IC50 [1] was 8.1 µg/mL (≈ 20.9 µM), the responders at 0.2 mg/kg [2] was 0% and the response vs control in vivo at 0.2 mg/kg [2] was 197%. The responders at 0.39 mg/kg [2] was 75%, the response vs control in vivo at 0.39 mg/kg [2] was > 390% and the responders at 0.78 mg/kg [2] was 100%. For the same compound, the response vs control in vivo at 0.78 mg/kg [2] was > 429%, the responders at 1.56 mg/kg [2] was 100% and the response vs control in vivo at 1.56 mg/kg [2] was > 429%. The responders at 3.13 mg/kg [2] was 50%, the response vs control in vivo at 3.13 mg/kg [2] was > 364% and the responders at 6.25 mg/kg [2] was 25%. The response vs control in vivo at 6.25 mg/kg [2] was > 369%, the responders at 12.5 mg/kg [2] was 50% and the response vs control in vivo at 12.5 mg/kg [2] was > 357%. It also gave a responders at 25 mg/kg [2] of 0%, a response vs control in vivo at 25 mg/kg [2] of 336% and a responders at 50 mg/kg [2] of 0%. The response vs control in vivo at 50 mg/kg [2] was 0%, the LD50 [3] was 25 to 50 mg/kg and the MTD [4] was > 150 mg/kg.

In the case of `N=C(N)NCCCCCCCC(=O)NC(O)C(=O)NCCCCNCCCN` (stereo not drawn) [Compound 5, N-[4-(3-aminopropyl)aminobutyl]-2-(8-guanidinooctanamido)-2-hydroxyethanamide], the inhibition at 2.5 µg/mL [1, 5] is reported as 24.9%, the inhibition at 5 µg/mL [1, 5] is reported as 29.1% and the inhibition at 10 µg/mL [1, 5] is reported as 40%. It also gave an inhibition at 20 µg/mL [1, 5] of 54.2%, an inhibition at 40 µg/mL [1, 5] of 66% and an inhibition at 80 µg/mL [1, 5] of 88.5%. For the same compound, the inhibition at 160 µg/mL ([1]; L1210, 160 mcg/ml, read-out: Growth inhibition (%), (1-T/C) × 100) was 96.8%, the IC50 [1] was 18 µg/mL (≈ 44.8 µM) and the responders at 1.56 mg/kg [2] was 0%. For the same compound, the response vs control in vivo at 1.56 mg/kg [2] was 104%, the responders at 3.13 mg/kg [2] was 0% and the response vs control in vivo at 3.13 mg/kg [2] was 118%. The responders at 6.25 mg/kg [2] was 0%, the response vs control in vivo at 6.25 mg/kg [2] was 125% and the responders at 12.5 mg/kg [2] was 0%. The response vs control in vivo at 12.5 mg/kg [2] was 181%, the responders at 25 mg/kg [2] was 0% and the response vs control in vivo at 25 mg/kg [2] was 306%. It also gave a responders at 50 mg/kg [2] of 0%, a response vs control in vivo at 50 mg/kg [2] of 0% and an LD50 [3] of 25 to 50 mg/kg. For the same compound, the MTD [4] was > 150 mg/kg.

`COC(NC(=O)C[C@@H](O)CCCCNC(=N)N)C(=O)NCCCCNCCCN` (stereo partly drawn) [Compound 22, N-[4-(3-aminopropyl)aminobutyl]-2-(7-guanidino-3-hydroxyheptanamido)-2-methoxyethanamide] gave an inhibition at 2.5 µg/mL [1, 5] of 60.8%, an inhibition at 5 µg/mL [1, 5] of 82.6% and an inhibition at 10 µg/mL [1, 5] of 94.5%. The inhibition at 20 µg/mL [1, 5] was 96.9%, the inhibition at 40 µg/mL [1, 5] was 98.3% and the IC50 [1] was 1.8 µg/mL (≈ 4.31 µM). For the same compound, the responders at 1.56 mg/kg [2] was 0%, the response vs control in vivo at 1.56 mg/kg [2] was 117% and the responders at 3.13 mg/kg [2] was 0%. The response vs control in vivo at 3.13 mg/kg [2] was 163%, the responders at 6.25 mg/kg [2] was 50% and the response vs control in vivo at 6.25 mg/kg [2] was > 332%. For the same compound, the responders at 12.5 mg/kg [2] was 62.5%, the response vs control in vivo at 12.5 mg/kg [2] was > 380% and the responders at 25 mg/kg [2] was 75%. The response vs control in vivo at 25 mg/kg [2] was > 414%, the responders at 50 mg/kg [2] was 0% and the response vs control in vivo at 50 mg/kg [2] was 7%. The LD50 [3] was 25 to 50 mg/kg and the MTD [4] was > 150 mg/kg.
